Test results published in PubChem BioAssay (NCI).
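How tested: cells in 96-well plates exposed to compound for 48 hours at five concentrations. Abbreviation: GI50, concentration required for 50% inhibition of growth. Definition used: TGI = concentration required for complete inhibition of growth.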

Experiments:
Test in all cases: inhibition of tumour cell growth, NCI panel, 48 h
OVCAR-4 ovarian = system: OVCAR-4 ovarian
A498 renal = system: A498 renal
HOP-62 NSCLC = system: HOP-62 NSCLC
SN12C renal = system: SN12C renal
MOLT-4 leukemia = system: MOLT-4 leukemia
MCF7 breast = system: MCF7 breast
CAKI-1 renal = system: CAKI-1 renal
M14 melanoma = system: M14 melanoma
HL-60(TB) leukemia = system: HL-60(TB) leukemia
RXF 393 renal = system: RXF 393 renal

Row | Compound | TGI (OVCAR-4 ovarian) [µM] | TGI (A498 renal) [µM] | TGI (HOP-62 NSCLC) [µM] | TGI (SN12C renal) [µM] | TGI (MOLT-4 leukemia) [µM] | TGI (MCF7 breast) [µM] | TGI (CAKI-1 renal) [µM] | TGI (M14 melanoma) [µM] | TGI (HL-60(TB) leukemia) [µM] | TGI (RXF 393 renal) [µM] | GI50 (OVCAR-4 ovarian) [µM] | GI50 (SN12C renal) [µM] | GI50 (CAKI-1 renal) [µM] | GI50 (M14 melanoma) [µM] | GI50 (RXF 393 renal) [µM]
1 | CCOc1cc2c(cc1O)/C(=N\OC)C[C@@H]1[C@@H]2CC[C@]2(C)[C@@H](O)CC[C@@H]12 | > 100 | 0.944 | 26.4 | 48.1 | 26.5 | > 37.6 | > 23.4 | 21.8 |  |  |  |  |  |  | 
2 | CCOC(=O)N1CCC2(CC1)C[C@](C)(C(C)=O)C(C)O2 (some centres not stated) | > 100 | > 100 | > 100 |  | > 100 | > 100 | > 100 | > 100 | 17.8 |  |  |  |  |  | 
3 | CC[C@@]1(O)C(=O)OCc2c1cc1n(c2=O)Cc2c-1nc1ccccc1c2/C=N\NC(=O)CN | > 100 | 3.76 | 3.73 | > 100 | 0.368 | > 64 |  |  | > 100 | 7.66 |  |  |  |  | 
4 | COc1cc(/C=C2\S/C(=N/Nc3nc(-c4ccc(Br)cc4)cs3)NC2=O)cc(OC)c1OC | 85 |  | 30.3 | > 100 | 9.51 | > 100 | 46.6 | 41.8 |  | 19.4 |  |  |  |  | 
5 | CNS(=O)(=O)NNS(=O)(=O)c1ccc2ccccc2c1 | > 100 | > 100 | > 100 | > 100 | > 100 |  | > 100 | > 100 | > 100 |  |  |  |  |  | 
6 | CC(=O)Nc1ccc(-c2nnc(SCC(=O)Nc3ccc([N+](=O)[O-])cc3)o2)cc1 | 26.3 |  | 53.4 | 29.8 | > 100 |  | 27.5 | 26.9 | > 100 | 27.9 |  |  |  |  | 
7 | COC(=O)c1cc2c(n1S(=O)(=O)c1ccc(C)cc1)C(=O)C(=O)c1[nH]cc(C(=O)OCc3ccccc3)c1-2 | 0.987 | 3.26 | 0.385 | 0.241 | 0.944 | 0.174 | 1.28 | 0.167 |  | 0.824 |  |  |  |  | 
8 | CCC[C@@H](O)C[C@@H]1CCC[C@H](C[C@@H](O)CC)N1C | > 100 | > 100 | > 100 | > 100 | > 100 | > 100 | > 100 | > 100 | > 100 |  |  |  |  |  | 
9 | O=c1[nH][nH]c(=O)n1Cc1ccccc1Cn1c(=O)[nH][nH]c1=O |  | > 100 | > 100 | > 100 | > 100 |  | > 100 | > 100 | > 100 | > 100 |  |  |  |  | 
10 | O=C1CCC(=O)N1n1c(Cc2ccccc2)n[nH]c1=O | > 100 | > 100 | > 100 | > 100 | > 100 | > 100 | > 100 | > 100 |  | > 100 |  |  |  |  | 
11 | CCOC(=O)C(NC(C)=O)(Nc1ccc(F)cc1)C(F)(F)F (configuration not stated) | > 100 |  |  | > 100 | > 100 | > 100 | > 100 | > 100 | > 100 | > 100 |  |  |  |  | 
12 | Clc1ccc(/C=C/c2nc3ccccc3s2)cc1Cl | 37.3 |  | 55.8 | > 100 | > 100 | > 100 | 48.6 | > 100 | > 100 |  |  |  |  |  | 
13 | COc1ccc(N2C(=O)C3c4[nH]c5ccccc5c4C4CCC(C(C)(C)C)CC4C3C2=O)c(C)c1 (configuration not stated) | > 100 |  | > 100 | > 100 | > 100 | > 100 | > 100 | > 100 | > 100 | > 100 |  |  |  |  | 
14 | COc1ccc(CNc2nc(NCc3ccc(OC)c(OC)c3)nc(NC3CCCCC3)n2)cc1 | > 100 |  |  | > 100 | > 100 | > 100 | > 100 | > 100 | > 100 | 6.22 |  |  |  |  | 
15 | CC1(C)N=C(/C(Cl)=[N+](/[O-])C(=O)c2ccc(F)cc2)C(C)(C)N1O | 32.2 |  | 40 | 29.2 |  | 44 | 34.5 | 30.3 | 27.3 | 28.8 |  |  |  |  | 
16 | CCN(CC)CCC(=O)Nc1ccc2c(c1)C(=O)c1ccc(NC(=O)CCN(CC)CC)cc1C2=O | 18.9 | 17.8 | 17.6 | 13.4 | 12.2 |  | 14.7 | 27.1 | 16.7 | 9.27 |  |  |  |  | 
17 | N.N.N.N.O=[N+]([O-])[O-].[Co+3].[N-]=[N+]=[N-].[N-]=[N+]=[N-] | > 100 | > 100 | > 100 | > 100 | > 100 |  |  | > 100 | > 100 |  |  |  |  |  | 
18 | CC(=O)NC1=C(NCCC(C)C)C(=O)c2ccccc2C1=O | > 50 |  | > 50 | > 50 | > 50 |  |  | > 50 | > 50 | > 50 |  |  |  |  | 
19 | O=C([O-])CC(=O)[O-].O=C([O-])CC(=O)[O-].[K+].[Pd+2] | > 100 |  |  | > 100 |  |  | > 100 | > 100 |  | > 100 | > 100 | > 100 | > 100 | > 100 | > 100
20 | COc1ccc(C2c3cc4c(cc3OC(NNS(=O)(=O)c3ccc(C)cc3)C2C)OCO4)cc1 (configuration not stated) |  | > 100 | > 100 | > 100 | > 100 | > 100 | > 100 | > 100 | 84.7 | > 100 |  |  |  |  | 
21 | Cc1cccc2c(=O)cc(-c3ccccc3)[nH]c12 | 35.7 | 36 | 42.6 | > 100 | > 100 |  |  | > 100 | > 100 | 38.2 |  |  |  |  | 
22 | COc1cc([C@@H]2c3cc4c(cc3[C@@H](Nc3ccc([N+](=O)[O-])cc3C(=O)c3ccccc3)[C@H]3COC(=O)[C@H]23)OCO4)cc(OC)c1OC | > 100 | > 100 | > 100 | > 100 | > 100 | > 100 | > 100 | > 100 |  | > 100 |  |  |  |  | 
23 | Cc1cn(C2CC(n3cc(Cn4cc(I)c(=O)[nH]c4=O)nn3)C(CO)O2)c(=O)[nH]c1=O (configuration not stated) | > 100 | > 100 | > 100 | > 100 | > 100 | > 100 | > 100 | > 100 |  | > 100 |  |  |  |  | 
